Consider four compounds from PMC4745082, “A Novel PET Imaging Probe for the Detection and Monitoring of Translocator Protein 18 kDa Expression in Pathological Disorders” (Scientific Reports, 2016).

One assay has as its target CBR. Description: In vitro CBR binding, displacement of [3H]flunitrazepam. Further details: species or system rat. Conditions: for Ki: displacement of [3H]flunitrazepam from rat cerebrocortical samples, mean of three experiments in duplicate. On the procedure:
Binding affinity and selectivity to the 18-kDa translocator protein TSPO and to CBR were assessed using in vitro receptor binding assays. These experiments were carried out as described by Denora et al[34].
In general terms: Loss of bound radioactivity is the signal in a displacement assay; it reports binding, not function.

For assay [1], the target named is T1, TSPO (Rattus norvegicus, UniProt P16257). Conditions: ratio of Ki values, higher affinity of CB251.
T1 sequence (P16257 whole entry): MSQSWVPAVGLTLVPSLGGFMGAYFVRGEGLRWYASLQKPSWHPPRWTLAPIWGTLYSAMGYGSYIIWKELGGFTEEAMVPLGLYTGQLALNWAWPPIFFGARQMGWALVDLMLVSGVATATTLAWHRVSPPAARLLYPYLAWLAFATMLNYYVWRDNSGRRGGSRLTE
In assay [2] the target is T1, TSPO. Description: biochemical.
The target in assay [3] is TSPO. Further details: method as in PMID 19948230. Conditions: literature value ref 25; cited from earlier work.

As usually defined, the Ki is the equilibrium dissociation constant of an inhibitor or competing ligand from its target. Take `CCC(C)N(C)C(=O)c1cc2ccccc2c(-c2ccccc2Cl)n1` (centres unmarked) [PK 11195, reference compound]: at CBR, the inhibition constant (Ki) was over 100000 nM.

Regarding `CCCN(CCC)C(=O)Cc1c(-c2ccc(OCCF)cc2)nc2c(Cl)cc(Cl)cn12` [CB251, 2-(2-(4-(2-Fluoroethoxy)phenyl)-6,8-dichloroimidazo[1,2-a]pyridin-3-yl)-N,N-dipropylacetamide], the inhibition constant (Ki) is over 100000 nM at CBR and 0.27 ± 0.09 nM on TSPO [2]. The “binding to CBR” value in the assay with CBR (result in words) is recorded as “below the detection limit”. On TSPO [1], the “TSPO binding affinity relative to PK 11195” value amounted to 5 times. For the same compound, at TSPO [1] (PBR28 Ki from ref 25), the “TSPO binding affinity relative to PBR28” value amounted to 22 times.

On CBR, `CN1C(=O)CN=C(c2ccccc2F)c2cc([N+](=O)[O-])ccc21` [flunitrazepam, reference compound] had a Ki of 5.11 ± 0.87 nM.

Regarding `COc1ccccc1CN(C(C)=O)c1cnccc1Oc1ccccc1` [PBR28], at TSPO [3], the Ki was 6.1 ± 6.4 nM.
